Test results reported in US6828450B2, “Triptycene analogs” (Kansas State University Research Foundation, priority 2000, dated 2004).
Where “and” joins values, the source holds several entries; their conditions need not be identical. Identical values can stand only once. Like-named read-outs stand apart in the source and are kept apart here. Blank lines part the entries; values can stand above or below the compound they belong to.

How the values were obtained:
L1210 cells [1] = experiment: cells; details: for inhibitory effect on L1210 cell viability: 256 nM, 4 days; for cytotoxicity at 0.041 µM: read-out: % inhibition of L1210 cell viability
Description: FIG. 1. […] For tumor cell growth and viability, L1210 cells were respectively seeded in triplicate at initial densities of 1×10^4 and 1.11×10^4 cells/0.5 ml/well in RPMI 1640 medium containing 7.5% FCS and penicillin (100 IU/ml)-streptomycin (100 μg/ml), and grown for 4 days in the presence or absence (control) of 256 nM concentrations of the indicated compounds in a humidified incubator at 37° C. with 5% CO2 in air. Cell density was monitored using a Coulter counter. […] The ability of viable cells/0.5 ml to bioreduce 0.1 ml of MTS:PMS (20:1) reagent over a 3-h incubation period at 37° C. was assessed by measuring the absorbamce of the water-soluble formazan products at A490 nm.
FIG. 4. […] Cells were seeded in triplicate at initial densities of 100,000 or 11,100 cells/0.5 ml/well and respectively incubated for 2 or 4 days in the presence or absence (control) of the indicated concentrations of drugs, which are plotted on a logarithmic scale. The ability of viable cells/0.5 ml to bioreduce 0.1 ml of MTS:PMS (20:1) reagent over a 3-h incubation period was assessed as described in FIG. 1.
TT0 was purchased from Aldrich (Milwaukee, Wis.). All solutions of synthetic TTs and tricyclic pyrone H10, vincristine (VCR; a gift from Lilly Researeh Laboratories, Indianapolis, Ind.) and camptothecin (CPT; from Sigma Chemical Co., St Louis, Mo.) were dissolved and diluted in dimethyl sulfoxide (DMSO), whereas daunomycin (DAU) (from Sigma) solutions were prepared in 0.1 M potassium phosphate buffer, pH 7.4, containing 0.9% NaCl. Suspension cultures of murine L1210 lymphocytic leukemia cells (American Type Culture Collection, Rockville, Md.) were maintained in continuous exponential growth by twice-a-week passage in RPMI 1640 medium supplemented with 7.5% fortified bovine calf serum (FCS; HyClone Laboratories, Logan, Utah) and penicillin (100 IU/ml)-streptomycin (100 μg/ml), and incubated in the presence or absence of drugs at 37° C. in a humidified atmosphere containing 5% CO2. […] Control cells incubated in the absence of drugs were similarly treated with vehicle only and, in every experiment, all incubates received the same volume of solvent. For drug removal, incubates were spun at 200×g for 10 min, drug-containing supernatants were discarded, and intact cells were washed thrice with 1 ml of the above RPMI 1640 culture medium and resuspended in 0.5 ml of fresh medium for further incubation.
L1210, HL-60-S, HL60-RV and HL-60-R8 cells suspended in FCS-containing RPMI 1640 medium were grown in 48-well Costar cell culture plates for up to 4 days in the presence or absence of drugs to evaluate drug cytotoxicity.

L1210 cells [2] = experiment: DNA synthesis (3H-thymidine incorporation) in L1210 cells; format: cell-based, murine; details: for concentration at which the drug becomes effective against DNA synthesis: 2-h treatment
Description: FIG. 9. […] Cells (1.14×10^6/0.5 ml of RPMI 1640 medium) were incubated at 37° C. for 90 min in the presence or absence (control) of the indicated concentrations of drugs, which are plotted on a logarithmic scale, and then pulse-labeled for an additional 30 min to determine the rate of ^3H-thymidine incorporation into DNA.
FIG. 11. […] The cellular uptake of ^3H-thymidine (striped) and the rate of ^3H-thymidine incorporation into DNA (open) were determined in cells (1.38×10^6/0.5 ml of RPMI 1640 medium) respectively preincubated at 37° C. for 15 or 90 min in the presence or absence (control) of 7 μM concentrations of the indicated compounds. For the cellular transport of nucleosides, preincubated cells were then exposed to 1 μCi of ^3H-thymidine for 30 sec at 37° C. […] For DNA synthesis, preincubated cells were then pulse-labeled with 1 μCi of ^3H-thymidine for an additional 30 min at 37° C.
FIG. 12. […] The cellular uptake of ^3H-thymidine (striped) and the rate of ^3H-thymidine incorporation into DNA (open) were determined in cells (1.64×10^6/0.5 ml of RPMI 1640 medium) respectively preincubated at 37° C. for 15 or 60 min in the presence or absence (control) of 10 and 25 μM TT2 or 25 μM H10. […] After preincubation, vehicle-treated controls were similarly spun and washed. For the cellular transport of nucleosides, preincubated cells were then exposed, in the presence (+) or absence (−) of TT2 or H10, to 1 μCi of ^3H-thymidine for 30 sec at 37° C. […] For DNA synthesis, preincubated cells were then pulse-labeled with 1 μCi of ^3H-thymidine for an additional 30 min at 37° C. in the presence (+) or absence (−) of TT2 or H10. […] Bars: means±SD (n=3).
For nucleic acid and protein syntheses, L1210 cells were resuspended in fresh FCS-containing RPMI 1640 medium at a density of about 1.1-1.6×10^6 cells/0.5 ml. To estimate the rate of DNA synthesis, HL-60-S, HL-60-RV and HL-60-R8 cells were resuspended in fresh FCS-containing RPMI 1640 medium at a density of 5×10^5 cells/0.5 ml.

HL-60-RV cells = experiment: HL-60-RV (MDR) cell proliferation assay; format: cell-based, human; details: for IC50: read-out: IC50, inhibition of HL-60-RV cell proliferation
Source text: The MDR HL-60-RV and HL-60-R8 cells were developed in Melvin S. Center's laboratory (Kansas State University) and similarly maintained in RPMI 1640 medium in the absence of drugs (Marsh W, et al, Cancer Res 46: 4053-4057, 1986; McGrath T et al, and Center M S: Biochem Biophys Res Commun 145: 1171-1176, 1987; Marsh W and Center M S: Cancer Res 47: 5080-5086, 1987; McGrath T, et al, Biochem Pharmacol 38: 3611-3619, 1989; Marquardt D, et al, Cancer Res 50: 1426-1430, 1990; Marquardt D and Center M S: J Natl Cancer Inst 83: 1089-1109, 1991; Krishnamachary N and Center M S; Cancer Res 53: 3658-3661, 1993). Every 4 weeks, these HL-60-RV and HL-60-R8 sublines were exposed to 41 nM DAU for 48 h to stabilize their MDR phenotype. This concentration of DAU, which is not cytotoxic to MDR HL-60 sublines, was removed from the culture medium at least 48 h before experimentation. […] RFs were determined by dividing the IC50 of the MDR cells by that of the sensitive WT parent cell line.

HL-60-R8 cells = experiment: DNA synthesis in HL-60-R8 cells; format: cell-based, human; details: read-out: IC50, inhibition of DNA synthesis in HL-60-R8 cells
[3] = read-out: IC50 (concentration inhibiting by 50% the viability of L1210 leukemic cells), day 4, Table 2 series
[4] = HL-60-RV and HL-60-R8 vs HL-60-S
[5] = HL-60-RV and HL-60-R8 vs HL-60-S, day 2
[6] = HL-60-RV and HL-60-R8 vs HL-60-S, day 4

IC50 (L1210 cells [1]; [3]): 300 nM
Structure (SMILES): COC1=C(Br)C(=O)C2=C(C1=O)C1C3=C(C(=O)C=C(N(C)C)C3=O)C2c2ccccc21 (stereo not drawn) [TT16, 2-Bromo-3-methoxy-6-(dimethylamino)-9,10-dihydro-9,10-[1′,2′]benzenoanthracene-1,4,5,8-tetraone]
potency on DNA synthesis compared with TT2 (L1210 cells [2]; FIG. 13): as potent as TT2

IC50 (L1210 cells [1]; [3]): 270 nM
IC50 (L1210 cells [1]; read-out: IC50, inhibition of L1210 cell viability, day 2): 250 nM
IC50 (L1210 cells [1]; read-out: IC50, inhibition of L1210 cell viability, day 4): 100 nM
RFs, cell proliferation (IC50 of MDR cells / IC50 of WT HL-60-S) (HL-60-RV cells; [5]): 0.9-1.3
RFs, cell proliferation (IC50 of MDR cells / IC50 of WT HL-60-S) (HL-60-RV cells; [6]): 0.9-1.0
IC50 (HL-60-RV cells; day 2): 500 nM
IC50 (HL-60-RV cells; day 4): 260 nM
IC50 (L1210 cells [2]; 90 min drug + 30 min pulse-labeling (2 h), read-out: IC50, inhibition of DNA synthesis in L1210 cells): 6000 nM and ~6000 nM
IC50 (HL-60-R8 cells): 2100 nM
Structure (SMILES): COC1=CC(=O)C2=C(C1=O)C1C3=C(C(=O)C=CC3=O)C2c2ccccc21 (stereo not drawn) [TT2, 2-Methoxy-9,10-dihydro-9,10-[1′,2′]benzenoanthracene-1,4,5,8-tetraone]
RFs, tumor cell growth, viability and DNA synthesis together (HL-60-RV cells; [4]): 0.9-1.5
% inhibition of DNA synthesis (L1210 cells [2]; 10 μM TT2, 60-min preincubation): 69%
effect on DNA synthesis (L1210 cells [2]; 25 μM TT2, 2-h treatment): totally inhibited
% inhibition of DNA synthesis (L1210 cells [2]; 25 μM TT2, 60-min preincubation): 97%
concentration at which the drug becomes effective against DNA synthesis (L1210 cells [2]): greater than 1.6 μM
reversibility of the inhibition of DNA synthesis upon drug removal (L1210 cells [2]; 10 and 25 μM TT2 or 25 μM H10, 60-min preincubation): irreversible
times TT2 inhibits DNA, RNA and protein syntheses less effectively than DAU (L1210 cells [2]; L1210, after 2-3 h, IC50 values compared): 3-6 times

Structure (SMILES): COC(=O)C1=C(C(=O)OC)C[C@H]2[C@@H](C1)[C@@H](O)C1=C(C3C4=C(C1c1ccccc13)[C@@H](O)[C@H]1CC(C(=O)OC)=C(C(=O)OC)C[C@H]1[C@H]4O)[C@H]2O [TT12, (4aS*,5S*,7R*,12S*,14R*,7aR*,11aS*,14aR*)-Tetramethyl 1,4,4a,5,6,7,7a,8,11,11a,12,13,14,14a-tetradecahydro-5,7,12,14-tetrahydroxy-6,13-[1′,2′]benzenopentacene-2,3,9,10-tetracarboxylate]
inhibitory effect on L1210 cell viability (L1210 cells [1]): inactive
effect on DNA synthesis (L1210 cells [2]; 7 μM, 2 h): alter neither

Structure (SMILES): COC(=O)C1=C(C(=O)OC)C[C@H]2C(=O)C3=C(C(=O)[C@H]2C1)C1C2=C(C(=O)[C@H]4CC(C(=O)OC)=C(C(=O)OC)C[C@H]4C2=O)C3c2ccccc21 [TT4, (4aS*,7aR*,11aS*,14aR*)-Tetramethyl 1,4,4a,5,6,7,7a,8,11,11a,12,13,14,14a-tetradecahydro-5,7,12,14-tetraoxo-6,13-[1′,2′]benzenopentacene-2,3,9,10-tetracarboxylate]
inhibitory effect on L1210 cell viability (L1210 cells [1]): inactive
effect on DNA synthesis (L1210 cells [2]; 7 μM, 2 h): alter neither

Structure (SMILES): COc1cccc2c1C(=O)c1c(O)c3c(c(O)c1C2=O)C[C@@](O)(C(C)=O)C[C@@H]3O[C@H]1C[C@H](N)[C@H](O)[C@H](C)O1 [DAU, daunomycin, reference compound]
times DAU is more cytotoxic than TT2 (L1210 cells [1]): about 3.5 times
cytotoxicity at 0.041 µM (L1210 cells [1]; Mus musculus, L1210, 48 h): 32%
IC50 (L1210 cells [1]; Mus musculus, L1210, 48 h, read-out: IC50, inhibition of L1210 cell viability): 70 nM
cytotoxicity at 0.041 µM (L1210 cells [1]; Mus musculus, L1210, 96 h): 65%
IC50 (L1210 cells [1]; Mus musculus, L1210, 96 h, read-out: IC50 (concentration inhibiting by 50% the viability of L1210 leukemic cells)): 41 nM
IC50 (L1210 cells [1]; Mus musculus, L1210, 96 h, read-out: IC50, inhibition of L1210 cell viability): 30 nM
times less effective as cytostatic agent in MDR than in WT HL-60 cells (HL-60-RV cells; [4]): about 30 times
RFs, cell proliferation (IC50 of MDR cells / IC50 of WT HL-60-S) (HL-60-RV cells; [5]): 22.9-35.7
RFs, cell proliferation (IC50 of MDR cells / IC50 of WT HL-60-S) (HL-60-RV cells; [6]): 25.0-30.6
IC50 (HL-60-RV cells; Homo sapiens, 48 h): 500 nM
IC50 (HL-60-RV cells; Homo sapiens, 96 h): 275 nM
concentration at which the drug becomes effective against DNA synthesis (L1210 cells [2]): 0.256 µM
times DAU prevents DNA synthesis more effectively than TT2 (L1210 cells [2]; L1210, from IC50 values): about 6 times
IC50 (HL-60-R8 cells; Homo sapiens): 1700 nM
